Experiment: xn = mol fraction of the nth substance listed

CCN(CC)CC + Cc1cc(C)cc(C)c1
viscosity [mPa·s], 101 kPa
Details	x2 = 0.1033	x2 = 0.2154	x2 = 0.2645	x2 = 0.3959	x2 = 0.5072	x2 = 0.6007	x2 = 0.7132	x2 = 0.7989	x2 = 0.8692
293.15 K	0.386	0.41	0.422	0.453	0.484	0.517	0.56	0.593	0.628
303.15 K	0.35	0.369	0.378	0.407	0.432	0.462	0.497	0.526	0.557
313.15 K	0.315	0.334	0.342	0.368	0.391	0.416	0.449	0.473	0.5
323.15 K	0.288	0.304	0.312	0.335	0.357	0.378	0.407	0.429	0.452

[Br-].[Li+] + CO
101 kPa
Details	viscosity [mPa·s]
293.15 K, x2 = 0.7334	86.34
293.15 K, x2 = 0.7699	40.18
293.15 K, x2 = 0.804	20.18
293.15 K, x2 = 0.8367	10.43
293.15 K, x2 = 0.8645	6.343
293.15 K, x2 = 0.8908	4.223
303.15 K, x2 = 0.6926	102.1
303.15 K, x2 = 0.7326	55.05
303.15 K, x2 = 0.7698	28.35
303.15 K, x2 = 0.8039	15.05
303.15 K, x2 = 0.836	8.725
303.15 K, x2 = 0.8642	5.422
303.15 K, x2 = 0.8908	3.697
313.15 K, x2 = 0.6913	65.32
313.15 K, x2 = 0.7324	35.2
313.15 K, x2 = 0.7697	19.67
313.15 K, x2 = 0.8039	11.37
313.15 K, x2 = 0.836	7.147
313.15 K, x2 = 0.8644	4.634
313.15 K, x2 = 0.8908	3.566
323.15 K, x2 = 0.691	42.31
323.15 K, x2 = 0.7323	24.55
323.15 K, x2 = 0.7696	14.41
323.15 K, x2 = 0.8039	9.136
323.15 K, x2 = 0.836	5.438
323.15 K, x2 = 0.8644	3.976

ClC(Cl)(Cl)Cl + CCOC(C)=O
101.3 kPa
Details	viscosity [mPa·s]
298 K, x1 = 0.1581	0.517
298 K, x1 = 0.3048	0.57
298 K, x1 = 0.501	0.644
298 K, x1 = 0.6498	0.713
298 K, x1 = 0.8438	0.808
303.15 K, x2 = 0.1014	0.758
303.15 K, x2 = 0.1972	0.6991
303.15 K, x2 = 0.2976	0.6483
303.15 K, x2 = 0.394	0.6016
303.15 K, x2 = 0.4966	0.5603
303.15 K, x2 = 0.5986	0.5236
303.15 K, x2 = 0.6989	0.4883
303.15 K, x2 = 0.802	0.4572
303.15 K, x2 = 0.898	0.4289
318 K, x1 = 0.1518	0.4229
318 K, x1 = 0.3052	0.4655
318 K, x1 = 0.5035	0.5279
318 K, x1 = 0.6517	0.5797
318 K, x1 = 0.854	0.6674

CCN(CC)CC + CCCCOCCO
viscosity [mPa·s], 100 kPa
Details	298.15 K	303.15 K	308.15 K
x2 = 0.0506	0.431	0.407	0.383
x2 = 0.1002	0.51	0.474	0.447
x2 = 0.1499	0.598	0.553	0.518
x2 = 0.2	0.689	0.632	0.594
x2 = 0.3001	0.875	0.802	0.75
x2 = 0.3999	1.097	0.99	0.922
x2 = 0.5001	1.35	1.212	1.122
x2 = 0.6	1.632	1.457	1.342
x2 = 0.6996	1.946	1.714	1.576
x2 = 0.7994	2.254	1.979	1.809
x2 = 0.8995	2.578	2.264	2.058
x2 = 0.9498	2.724	2.392	2.174

NCC(=O)N[C@@H](CCC(N)=O)C(=O)O + O
298.15 K, 101 kPa
Details	viscosity [mPa·s]
x1 = 0.001798	0.937
x1 = 0.002695	0.96
